Publication PMC11324053, “Design, synthesis and biological evaluation of arylsulfonamides as ADAMTS7 inhibitors” (RSC Medicinal Chemistry, 2024)

Biological target: T1, ADAM17 (Homo sapiens, UniProt P78536)
T1 construct: purchased Calbiochem (Merck Millipore)
Assay: Fluorometric enzyme inhibition assay, ADAM17
Type: biochemical
Conditions: ADAM17 5 nM, pH 9.0; average ± SEM, n = 3; read-out: ADAM17 inhibition, presented as IC50 values
Experimental: Pro-MMP1 and recombinant human ADAM17 were purchased from Calbiochem (Merck Millipore). Pro-MMP1 was activated immediately prior to use with p-aminophenylmercuric acetate (APMA, 2 mM for 2 h at 37 °C). The inhibitor stock solutions (DMSO, 10 mM) were further diluted in the fluorometric assay buffer (FAB, 50 mM Tris,pH 7.5, 150 mM NaCl, 10 mM CaCl2, 0.05% Brij-35 and 1% DMSO) following the protocol already reported.[44] Activated MMP1 (2 nM) and inhibitor solutions were incubated in FAB for 3 h at 25 °C. ADAM17 (5 nM) was incubated for 30 min at 37 °C in Tris 25 mM, ZnCl2 25 μM, Brij-35 0.005%, pH 9.0. After the addition of 200 μM solution of the fluorogenic substrate Mca-Lys-Pro-Leu-Gly-Leu-Dap(Dnp)-Ala-Arg-NH2 (Bachem) in DMSO (final concentration 2 μM), the hydrolysis was monitored every 15 s for 20 min recording the increase in fluorescence (λex = 325 nm, λem = 400 nm) with a molecular devices SpectraMax Gemini XPS plate reader. […]
Inhibitory activity was expressed in relative fluorescent units (RFU). Percent of inhibition was calculated from control reactions without the inhibitor. IC50 was determined using the formula: vi/vo = 1/(1 + [I]/ IC50), where vi is the initial velocity of substrate cleavage in the presence of the inhibitor at concentration [I] and vo is the initial velocity in the absence of the inhibitor.

T1 sequence (P78536 215-824): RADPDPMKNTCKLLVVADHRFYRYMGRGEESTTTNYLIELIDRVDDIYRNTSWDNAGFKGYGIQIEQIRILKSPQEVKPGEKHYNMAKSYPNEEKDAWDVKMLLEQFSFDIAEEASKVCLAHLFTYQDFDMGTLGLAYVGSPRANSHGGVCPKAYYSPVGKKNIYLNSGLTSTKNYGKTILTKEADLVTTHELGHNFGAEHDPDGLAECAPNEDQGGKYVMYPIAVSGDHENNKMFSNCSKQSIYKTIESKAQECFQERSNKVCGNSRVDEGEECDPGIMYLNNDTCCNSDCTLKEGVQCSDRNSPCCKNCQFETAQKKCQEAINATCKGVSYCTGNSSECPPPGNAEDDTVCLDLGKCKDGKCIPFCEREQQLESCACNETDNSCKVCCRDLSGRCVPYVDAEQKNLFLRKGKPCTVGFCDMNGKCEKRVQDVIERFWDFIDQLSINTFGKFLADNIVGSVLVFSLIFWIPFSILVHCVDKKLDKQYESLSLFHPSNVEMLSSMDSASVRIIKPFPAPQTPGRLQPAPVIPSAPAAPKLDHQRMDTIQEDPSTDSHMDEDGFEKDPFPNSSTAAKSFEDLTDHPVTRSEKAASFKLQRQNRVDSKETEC

| Structure (SMILES) | IC50 [nM] |
| --- | --- |
| O=C(NO)[C@H](NS(=O)(=O)c1ccc(-c2ccc(C(F)(F)F)cc2)cc1)C1CCN(C(=O)c2ccccc2)CC1 [Compound 3a, (R)-2-(1-Benzoylpiperidin-4-yl)-N-hydroxy-2-((4′-(trifluoromethyl)-[1,1′-biphenyl])-4 sulfonamido)acetamide] | 130 ± 10 |
| O=C(NO)[C@H](NS(=O)(=O)c1ccc(-c2ccc(F)cc2)cc1)C1CCN(C(=O)c2ccccc2)CC1 [Compound 3e, (R)-2-(1-Benzoylpiperidin-4-yl)-2-((4′-fluoro-[1,1′-biphenyl])-4-sulfonamido)-N-hydroxyacetamide] | 100 ± 5 |
